{"source": "paper PMC12406203", "about": "(Journal of Medicinal Chemistry, 2025)", "assay_in_all_cases": "KINOMEscan", "assay_type_in_all_cases": "binding", "key": {"PIM2": {"biological_target": "T1, PIM2 (Homo sapiens, UniProt Q9P1W9)", "T1 construct": "purchased Eurofins DiscoverX, LLC; host or cells: E. coli BL21-derived host (T7 phage) or HEK-293"}, "PIK3CA": {"biological_target": "T2, PIK3CA (Homo sapiens, UniProt P42336)", "T2 construct": "purchased Eurofins DiscoverX, LLC; host or cells: E. coli BL21-derived host (T7 phage) or HEK-293"}, "ERK 2": {"biological_target": "T3, ERK 2 (Homo sapiens, UniProt P28482)", "T3 construct": "purchased Eurofins DiscoverX, LLC; host or cells: E. coli (T7 phage) or HEK-293"}, "GSK3B": {"biological_target": "T4, GSK3B (Homo sapiens, UniProt P49841)", "T4 construct": "purchased Eurofins DiscoverX, LLC; host or cells: E. coli (T7 phage) or HEK-293"}, "PLK3": {"biological_target": "T5, PLK3 (Homo sapiens, UniProt Q9H4B4)", "T5 construct": "purchased Eurofins DiscoverX, LLC; host or cells: E. coli BL21-derived host (T7 phage) or HEK-293"}, "[1]": {"biological_target": "T6, ABL1(T315I)-phosphorylated (Homo sapiens, UniProt P00519, T315I)", "T6 construct": "purchased Eurofins DiscoverX, LLC; host or cells: E. coli BL21-derived (T7 phage) or HEK-293"}, "FLT3": {"biological_target": "T7, FLT3 (Homo sapiens, UniProt P36888)", "T7 construct": "purchased Eurofins DiscoverX, LLC; host or cells: E. coli (T7 phage) or HEK-293", "T7 sequence (P36888 27-993)": "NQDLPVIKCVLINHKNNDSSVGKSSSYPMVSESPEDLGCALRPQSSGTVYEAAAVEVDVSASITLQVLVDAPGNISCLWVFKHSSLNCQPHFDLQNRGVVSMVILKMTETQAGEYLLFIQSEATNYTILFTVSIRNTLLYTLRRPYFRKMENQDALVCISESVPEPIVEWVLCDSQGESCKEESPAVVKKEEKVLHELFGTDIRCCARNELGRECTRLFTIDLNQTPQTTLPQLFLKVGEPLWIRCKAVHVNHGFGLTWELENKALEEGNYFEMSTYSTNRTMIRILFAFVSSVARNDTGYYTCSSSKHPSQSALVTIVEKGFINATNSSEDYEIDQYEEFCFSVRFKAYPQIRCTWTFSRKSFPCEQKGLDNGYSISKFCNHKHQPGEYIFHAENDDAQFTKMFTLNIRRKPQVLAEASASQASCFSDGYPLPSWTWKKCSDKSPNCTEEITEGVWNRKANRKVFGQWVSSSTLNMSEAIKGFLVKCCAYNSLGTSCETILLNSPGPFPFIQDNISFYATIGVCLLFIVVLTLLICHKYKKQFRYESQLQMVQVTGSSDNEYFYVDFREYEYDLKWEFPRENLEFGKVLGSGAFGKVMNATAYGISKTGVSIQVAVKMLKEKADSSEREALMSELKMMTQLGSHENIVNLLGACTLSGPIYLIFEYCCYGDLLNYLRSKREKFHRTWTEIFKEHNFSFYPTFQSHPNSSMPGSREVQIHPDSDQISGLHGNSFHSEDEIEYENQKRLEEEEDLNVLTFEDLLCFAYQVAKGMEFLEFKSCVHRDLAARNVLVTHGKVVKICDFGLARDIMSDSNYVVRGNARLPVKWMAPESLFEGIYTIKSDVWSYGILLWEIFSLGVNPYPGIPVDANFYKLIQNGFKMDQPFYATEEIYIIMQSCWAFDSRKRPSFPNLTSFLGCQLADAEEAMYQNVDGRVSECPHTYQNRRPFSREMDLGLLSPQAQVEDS"}, "CDK2": {"biological_target": "T8, CDK2 (Homo sapiens, UniProt P24941)", "T8 construct": "purchased Eurofins DiscoverX, LLC; host or cells: E. coli BL21-derived (T7 phage) or HEK-293"}, "BRAF": {"biological_target": "T9, BRAF (Homo sapiens, UniProt P15056)", "T9 construct": "purchased Eurofins DiscoverX, LLC; host or cells: E. coli BL21-derived (T7 phage) or HEK-293", "T9 sequence (P15056 whole entry)": "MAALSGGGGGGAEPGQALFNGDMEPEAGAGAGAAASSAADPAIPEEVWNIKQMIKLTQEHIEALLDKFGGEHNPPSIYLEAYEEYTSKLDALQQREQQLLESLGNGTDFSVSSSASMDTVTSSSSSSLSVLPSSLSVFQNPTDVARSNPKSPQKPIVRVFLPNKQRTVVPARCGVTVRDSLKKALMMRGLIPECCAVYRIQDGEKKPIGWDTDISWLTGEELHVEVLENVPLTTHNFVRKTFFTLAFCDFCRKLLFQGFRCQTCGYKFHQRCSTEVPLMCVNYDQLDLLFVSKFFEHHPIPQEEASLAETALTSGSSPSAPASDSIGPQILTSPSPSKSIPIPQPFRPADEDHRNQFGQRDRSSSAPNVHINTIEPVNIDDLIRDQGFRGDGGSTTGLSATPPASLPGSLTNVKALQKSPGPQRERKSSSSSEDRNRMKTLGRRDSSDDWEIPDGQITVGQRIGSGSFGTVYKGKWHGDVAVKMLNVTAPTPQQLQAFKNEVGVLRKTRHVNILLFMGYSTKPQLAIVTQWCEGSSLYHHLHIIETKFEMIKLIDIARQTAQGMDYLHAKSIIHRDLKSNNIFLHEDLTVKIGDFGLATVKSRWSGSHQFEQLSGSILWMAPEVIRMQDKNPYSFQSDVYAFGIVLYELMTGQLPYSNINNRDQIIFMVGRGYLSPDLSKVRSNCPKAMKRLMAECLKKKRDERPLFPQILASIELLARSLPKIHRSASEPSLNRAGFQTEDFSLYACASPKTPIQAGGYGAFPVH"}, "AKT2": {"biological_target": "T10, AKT2 (Homo sapiens, UniProt P31751)", "T10 construct": "purchased Eurofins DiscoverX, LLC; host or cells: E. coli BL21-derived (T7 phage) or HEK-293", "T10 sequence (P31751 whole entry)": "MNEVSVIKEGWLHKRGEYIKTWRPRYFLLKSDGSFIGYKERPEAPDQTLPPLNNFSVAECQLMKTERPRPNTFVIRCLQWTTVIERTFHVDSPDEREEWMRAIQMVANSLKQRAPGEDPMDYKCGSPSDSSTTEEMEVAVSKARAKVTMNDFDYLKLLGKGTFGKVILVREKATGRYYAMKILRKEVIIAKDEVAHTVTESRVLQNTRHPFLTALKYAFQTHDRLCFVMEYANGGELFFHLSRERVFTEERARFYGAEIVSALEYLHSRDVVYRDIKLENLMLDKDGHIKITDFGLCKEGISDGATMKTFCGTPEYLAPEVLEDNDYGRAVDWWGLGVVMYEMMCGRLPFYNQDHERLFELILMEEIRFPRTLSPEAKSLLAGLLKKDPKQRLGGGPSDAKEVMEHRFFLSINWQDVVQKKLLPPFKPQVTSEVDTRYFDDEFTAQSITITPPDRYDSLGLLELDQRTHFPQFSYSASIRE"}, "JNK2": {"biological_target": "T11, JNK2 (Homo sapiens, UniProt P45984)", "T11 construct": "purchased Eurofins DiscoverX, LLC; host or cells: E. coli (BL21-derived, T7 phage) or HEK-293", "T11 sequence (P45984 whole entry)": "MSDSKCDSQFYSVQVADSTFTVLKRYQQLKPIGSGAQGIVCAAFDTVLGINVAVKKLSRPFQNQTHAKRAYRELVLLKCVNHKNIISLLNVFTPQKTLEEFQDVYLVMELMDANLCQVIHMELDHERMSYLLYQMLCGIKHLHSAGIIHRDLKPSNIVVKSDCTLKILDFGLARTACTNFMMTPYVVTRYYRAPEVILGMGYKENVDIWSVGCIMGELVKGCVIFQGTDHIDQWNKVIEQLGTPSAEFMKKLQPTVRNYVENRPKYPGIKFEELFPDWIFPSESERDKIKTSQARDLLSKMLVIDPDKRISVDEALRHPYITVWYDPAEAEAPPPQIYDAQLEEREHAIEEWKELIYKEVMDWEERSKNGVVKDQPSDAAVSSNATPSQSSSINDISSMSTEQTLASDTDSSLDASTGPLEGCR"}, "JNK3": {"biological_target": "T12, JNK3 (Homo sapiens, UniProt P53779)", "T12 construct": "purchased Eurofins DiscoverX, LLC; host or cells: E. coli (BL21-derived, T7 phage) or HEK-293", "T12 sequence (P53779 whole entry)": "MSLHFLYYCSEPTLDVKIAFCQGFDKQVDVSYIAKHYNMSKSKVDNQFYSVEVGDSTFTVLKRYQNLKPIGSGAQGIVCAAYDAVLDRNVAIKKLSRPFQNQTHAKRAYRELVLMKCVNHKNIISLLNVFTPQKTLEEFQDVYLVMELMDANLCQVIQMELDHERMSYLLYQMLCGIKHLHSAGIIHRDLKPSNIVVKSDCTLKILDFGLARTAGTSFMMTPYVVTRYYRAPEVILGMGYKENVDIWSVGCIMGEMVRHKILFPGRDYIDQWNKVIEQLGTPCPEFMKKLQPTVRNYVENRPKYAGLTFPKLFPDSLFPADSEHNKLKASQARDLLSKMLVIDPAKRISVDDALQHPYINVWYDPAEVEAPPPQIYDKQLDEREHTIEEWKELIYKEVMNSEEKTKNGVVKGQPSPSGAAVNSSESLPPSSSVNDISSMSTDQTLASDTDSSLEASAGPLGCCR"}, "AURKA": {"biological_target": "T13, AURKA (Homo sapiens, UniProt O14965)", "T13 construct": "purchased Eurofins DiscoverX, LLC; host or cells: E. coli BL21-derived (T7 phage) or HEK-293", "T13 sequence (O14965 1-403)": "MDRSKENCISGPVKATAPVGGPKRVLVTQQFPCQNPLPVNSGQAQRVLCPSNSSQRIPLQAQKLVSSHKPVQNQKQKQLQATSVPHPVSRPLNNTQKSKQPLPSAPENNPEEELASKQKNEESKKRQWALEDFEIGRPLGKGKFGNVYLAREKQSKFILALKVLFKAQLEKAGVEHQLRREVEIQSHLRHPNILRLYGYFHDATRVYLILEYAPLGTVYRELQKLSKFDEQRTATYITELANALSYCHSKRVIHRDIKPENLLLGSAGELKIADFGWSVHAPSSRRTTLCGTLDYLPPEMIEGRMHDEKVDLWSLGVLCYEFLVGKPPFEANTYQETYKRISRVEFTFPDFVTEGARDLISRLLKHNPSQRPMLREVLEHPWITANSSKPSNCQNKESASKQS"}}, "data": [{"smiles": "CN(C)CCNC(=O)c1cc2c(cnn2CC2CCCCC2)cc1Cc1ccc(F)cc1F", "note": "[Compound 95, 1-(Cyclohexylmethyl)-5-(2,4-difluorobenzyl)-N-(2-(dimethylamino)ethyl)-1H-indazole-6-carboxamide]", "values": [{"measurement": "RA @ 1000nM", "setting": "PIM2", "result": 100, "unit": "%"}, {"measurement": "RA @ 10000nM", "setting": "PIM2", "result": 100, "unit": "%"}, {"measurement": "RA @ 1000nM", "setting": "PIK3CA", "result": 100, "unit": "%"}, {"measurement": "RA @ 10000nM", "setting": "PIK3CA", "result": 100, "unit": "%"}, {"measurement": "RA @ 1000nM", "setting": "ERK 2", "result": 100, "unit": "%"}, {"measurement": "RA @ 10000nM", "setting": "ERK 2", "result": 100, "unit": "%"}, {"measurement": "RA @ 1000nM", "setting": "GSK3B", "result": 100, "unit": "%"}, {"measurement": "RA @ 10000nM", "setting": "GSK3B", "result": 80, "unit": "%"}, {"measurement": "RA @ 1000nM", "setting": "PLK3", "result": 88, "unit": "%"}, {"measurement": "RA @ 10000nM", "setting": "PLK3", "result": 100, "unit": "%"}, {"measurement": "RA @ 1000nM", "setting": "[1]", "result": 72, "unit": "%"}, {"measurement": "RA @ 10000nM", "setting": "[1]", "result": 91, "unit": "%"}, {"measurement": "RA @ 1000nM", "setting": "FLT3", "result": 100, "unit": "%"}, {"measurement": "RA @ 10000nM", "setting": "FLT3", "result": 100, "unit": "%"}, {"measurement": "RA @ 1000nM", "setting": "CDK2", "result": 99, "unit": "%"}, {"measurement": "RA @ 10000nM", "setting": "CDK2", "result": 100, "unit": "%"}, {"measurement": "RA @ 1000nM", "setting": "BRAF", "result": 100, "unit": "%"}, {"measurement": "RA @ 10000nM", "setting": "BRAF", "result": 100, "unit": "%"}, {"measurement": "RA @ 1000nM", "setting": "AKT2", "result": 100, "unit": "%"}, {"measurement": "RA @ 10000nM", "setting": "AKT2", "result": 88, "unit": "%"}, {"measurement": "RA @ 1000nM", "setting": "JNK2", "result": 44, "unit": "%"}, {"measurement": "RA @ 10000nM", "setting": "JNK2", "result": 3.8, "unit": "%"}, {"measurement": "RA @ 1000nM", "setting": "JNK3", "result": 48, "unit": "%"}, {"measurement": "RA @ 10000nM", "setting": "JNK3", "result": 3.7, "unit": "%"}, {"measurement": "RA @ 1000nM", "setting": "AURKA", "result": 95, "unit": "%"}, {"measurement": "RA @ 10000nM", "setting": "AURKA", "result": 93, "unit": "%"}]}, {"smiles": "CC(C)Cn1ncc2cc(Cc3ccc(F)cc3F)c(C(=O)NCCN(C)C)cc21", "note": "[Compound 94, 5-(2,4-Difluorobenzyl)-N-(2-(dimethylamino)ethyl)-1-isobutyl-1H-indazole-6-carboxamide]", "values": [{"measurement": "RA @ 1000nM", "setting": "PIM2", "result": 100, "unit": "%"}, {"measurement": "RA @ 10000nM", "setting": "PIM2", "result": 100, "unit": "%"}, {"measurement": "RA @ 1000nM", "setting": "PIK3CA", "result": 77, "unit": "%"}, {"measurement": "RA @ 10000nM", "setting": "PIK3CA", "result": 95, "unit": "%"}, {"measurement": "RA @ 1000nM", "setting": "ERK 2", "result": 100, "unit": "%"}, {"measurement": "RA @ 10000nM", "setting": "ERK 2", "result": 98, "unit": "%"}, {"measurement": "RA @ 1000nM", "setting": "GSK3B", "result": 91, "unit": "%"}, {"measurement": "RA @ 10000nM", "setting": "GSK3B", "result": 97, "unit": "%"}, {"measurement": "RA @ 1000nM", "setting": "PLK3", "result": 100, "unit": "%"}, {"measurement": "RA @ 10000nM", "setting": "PLK3", "result": 97, "unit": "%"}, {"measurement": "RA @ 1000nM", "setting": "[1]", "result": 93, "unit": "%"}, {"measurement": "RA @ 10000nM", "setting": "[1]", "result": 90, "unit": "%"}, {"measurement": "RA @ 1000nM", "setting": "FLT3", "result": 100, "unit": "%"}, {"measurement": "RA @ 10000nM", "setting": "FLT3", "result": 90, "unit": "%"}, {"measurement": "RA @ 1000nM", "setting": "CDK2", "result": 82, "unit": "%"}, {"measurement": "RA @ 10000nM", "setting": "CDK2", "result": 97, "unit": "%"}, {"measurement": "RA @ 1000nM", "setting": "BRAF", "result": 100, "unit": "%"}, {"measurement": "RA @ 10000nM", "setting": "BRAF", "result": 100, "unit": "%"}, {"measurement": "RA @ 1000nM", "setting": "AKT2", "result": 89, "unit": "%"}, {"measurement": "RA @ 10000nM", "setting": "AKT2", "result": 76, "unit": "%"}, {"measurement": "RA @ 1000nM", "setting": "JNK2", "result": 52, "unit": "%"}, {"measurement": "RA @ 10000nM", "setting": "JNK2", "result": 8.3, "unit": "%"}, {"measurement": "RA @ 1000nM", "setting": "JNK3", "result": 55, "unit": "%"}, {"measurement": "RA @ 10000nM", "setting": "JNK3", "result": 6.8, "unit": "%"}, {"measurement": "RA @ 1000nM", "setting": "AURKA", "result": 96, "unit": "%"}, {"measurement": "RA @ 10000nM", "setting": "AURKA", "result": 93, "unit": "%"}]}]}
